Test results published in EP1408048A1, “Vaccines of enhanced immunogenicity, and methods for preparing such vaccines” (INSTITUT NATIONAL DE LA SANTE ET DE LA RECHERCHE MEDICALE …, priority 2002, dated 2004).

Test system: TAP
Assay: TAP competitive binding assay with radio-labeled reporter peptide R9L
Conditions: result in words; TAP affinity = inverse of the IC50; reporter peptide R9L at 300 nM
Description: TAP affinities were determined in a competitive binding assay. IC50 values for competitor test peptides were normalized with respect to the IC50 of reporter peptide […] (SEQ ID N° 2).
Determination of HLA-A2 and TAP affinities. […] Results are expressed as inverse normalized IC50 (1/IC50 of test peptide/ IC50 of cold reporter peptide).

## RRYNASTEL [R9L]
  TAP affinity: high
